Data published in PMC9386913 (Arthritis Research & Therapy, 2022).
Marks after values point to notes of the source that are not given here.

Assay: Phase I multiple ascending-dose study: safety and tolerability (treatment-emergent adverse events)
Assay type: in vivo, human (healthy volunteers)
Description: A single-center, randomized, double-blind, placebo-controlled phase I study (NCT03554993) with a MAD component was performed in the UK between May 2018 and July 2019. Thirty-seven healthy volunteers of any race, ethnicity, or sex were enrolled. The inclusion criteria were 18 to 55 years of age inclusive, body mass index 18 to 33 kg/m^2, and physical examination by the investigator without clinically significant findings. Subjects were excluded if any clinically significant medical history, laboratory abnormality, psychiatric illness, or other condition existed that would place the subject at unacceptable risk by participating in the study. Pregnancy prevention guidance was provided as per Clinical Trial Facilitation Group recommendations. Subjects were randomly assigned to daily oral doses of CC-99677 or placebo. Subjects were dosed daily for 14 days. […] Both the investigator and subjects were blinded to the treatment arm. Safety assessments, including physical examinations, clinical laboratory tests, and collection of adverse events (AEs) were performed and graded using MedDRA version 22.0 and the US Food and Drug Administration (FDA) Toxicity Grading Scale for Healthy Adult and Adolescent Volunteers. The primary outcome of this trial was the safety and tolerability of multiple daily doses of CC-99677.

CCOCc1cnc(Cl)nc1Oc1ccc2c(ccc3sc4c(c32)NC[C@@H](C)NC4=O)n1 [CC-99677]
TEAE: Investigations (60 mg daily, 14 days (n = 6)): 0 n (%) | TEAE: Muscle strain (60 mg daily, 14 days (n = 6)): 0 n (%) | TEAE: Musculoskeletal and connective tissue disorders (60 mg daily, 14 days (n = 6)): 0 n (%) | TEAE: Musculoskeletal pain (60 mg daily, 14 days (n = 6)): 0 n (%) | TEAE: Myalgia (60 mg daily, 14 days (n = 6)): 0 n (%) | TEAE: Nasopharyngitis (60 mg daily, 14 days (n = 6)): 0 n (%) | TEAE: Nausea (60 mg daily, 14 days (n = 6)): 0 n (%) | TEAE: Nervous system disorders (60 mg daily, 14 days (n = 6)): 1 (16.7) n (%) | TEAE: Oropharyngeal pain (60 mg daily, 14 days (n = 6)): 0 n (%) | TEAE: Psychiatric disorders (60 mg daily, 14 days (n = 6)): 0 n (%) | TEAE: Rash pustular (60 mg daily, 14 days (n = 6)): 0 n (%) | TEAE: Rectal hemorrhage (60 mg daily, 14 days (n = 6)): 0 n (%) | TEAE: Reproductive system and breast disorders (60 mg daily, 14 days (n = 6)): 0 n (%) | TEAE: Respiratory, thoracic, and mediastinal disorders (60 mg daily, 14 days (n = 6)): 0 n (%) | TEAE: Sensation of foreign body (60 mg daily, 14 days (n = 6)): 0 n (%) | TEAE: Vascular disorders (60 mg daily, 14 days (n = 6)): 0 n (%) | TEAE: Vessel puncture site pain (60 mg daily, 14 days (n = 6)): 0 n (%) | TEAE: Vessel puncture site reaction (60 mg daily, 14 days (n = 6)): 0 n (%) | Subjects with ≥ 1 treatment-emergent AE (120 mg daily, 14 days (n = 6)): 3 (50.0) n (%) | TEAE: Abdominal pain (120 mg daily, 14 days (n = 6)): 1 (16.7) n (%) | TEAE: Alanine aminotransferase increased (120 mg daily, 14 days (n = 6)): 1 (16.7) n (%) | TEAE: Aspartate aminotransferase increased (120 mg daily, 14 days (n = 6)): 0 n (%) | TEAE: Back pain (120 mg daily, 14 days (n = 6)): 0 n (%) | TEAE: Blood creatine phosphokinase increased (120 mg daily, 14 days (n = 6)): 0 n (%) | TEAE: Catheter site related reaction (120 mg daily, 14 days (n = 6)): 0 n (%) | TEAE: Chapped lips (120 mg daily, 14 days (n = 6)): 0 n (%) | TEAE: Constipation (120 mg daily, 14 days (n = 6)): 0 n (%) | TEAE: Diarrhea (120 mg daily, 14 days (n = 6)): 1 (16.7) n (%) | TEAE: Dizziness (120 mg daily, 14 days (n = 6)): 0 n (%) | TEAE: Dysmenorrhea (120 mg daily, 14 days (n = 6)): 0 n (%) | TEAE: Dyspepsia (120 mg daily, 14 days (n = 6)): 0 n (%) | TEAE: Ear and labyrinth disorders (120 mg daily, 14 days (n = 6)): 0 n (%) | TEAE: Ear pain (120 mg daily, 14 days (n = 6)): 0 n (%) | TEAE: Flushing (120 mg daily, 14 days (n = 6)): 0 n (%) | TEAE: Gastrointestinal disorders (120 mg daily, 14 days (n = 6)): 1 (16.7) n (%) | TEAE: General disorders and administration site conditions (120 mg daily, 14 days (n = 6)): 0 n (%) | TEAE: Headache (120 mg daily, 14 days (n = 6)): 1 (16.7) n (%) | TEAE: Hot flush (120 mg daily, 14 days (n = 6)): 0 n (%) | TEAE: Infections and infestations (120 mg daily, 14 days (n = 6)): 0 n (%) | TEAE: Injury, poisoning, and procedural complications (120 mg daily, 14 days (n = 6)): 0 n (%) | TEAE: Insomnia (120 mg daily, 14 days (n = 6)): 0 n (%) | TEAE: Investigations (120 mg daily, 14 days (n = 6)): 1 (16.7) n (%) | TEAE: Muscle strain (120 mg daily, 14 days (n = 6)): 0 n (%) | TEAE: Musculoskeletal and connective tissue disorders (120 mg daily, 14 days (n = 6)): 1 (16.7) n (%) | TEAE: Musculoskeletal pain (120 mg daily, 14 days (n = 6)): 1 (16.7) n (%) | TEAE: Myalgia (120 mg daily, 14 days (n = 6)): 0 n (%) | TEAE: Nasopharyngitis (120 mg daily, 14 days (n = 6)): 0 n (%) | TEAE: Nausea (120 mg daily, 14 days (n = 6)): 0 n (%) | TEAE: Nervous system disorders (120 mg daily, 14 days (n = 6)): 1 (16.7) n (%) | TEAE: Oropharyngeal pain (120 mg daily, 14 days (n = 6)): 1 (16.7) n (%) | TEAE: Psychiatric disorders (120 mg daily, 14 days (n = 6)): 0 n (%) | TEAE: Rash pustular (120 mg daily, 14 days (n = 6)): 0 n (%) | TEAE: Rectal hemorrhage (120 mg daily, 14 days (n = 6)): 0 n (%) | TEAE: Reproductive system and breast disorders (120 mg daily, 14 days (n = 6)): 0 n (%) | TEAE: Respiratory, thoracic, and mediastinal disorders (120 mg daily, 14 days (n = 6)): 1 (16.7) n (%) | TEAE: Sensation of foreign body (120 mg daily, 14 days (n = 6)): 0 n (%) | TEAE: Vascular disorders (120 mg daily, 14 days (n = 6)): 0 n (%) | TEAE: Vessel puncture site pain (120 mg daily, 14 days (n = 6)): 0 n (%) | TEAE: Vessel puncture site reaction (120 mg daily, 14 days (n = 6)): 0 n (%) | Subjects with ≥ 1 treatment-emergent AE (150 mg daily, 14 days (n = 5)): 2 (40.0) n (%) | TEAE: Abdominal pain (150 mg daily, 14 days (n = 5)): 0 n (%) | TEAE: Alanine aminotransferase increased (150 mg daily, 14 days (n = 5)): 0 n (%) | TEAE: Back pain (150 mg daily, 14 days (n = 5)): 0 n (%) | TEAE: Catheter site related reaction (150 mg daily, 14 days (n = 5)): 0 n (%) | TEAE: Chapped lips (150 mg daily, 14 days (n = 5)): 0 n (%) | TEAE: Constipation (150 mg daily, 14 days (n = 5)): 0 n (%) | TEAE: Diarrhea (150 mg daily, 14 days (n = 5)): 0 n (%) | TEAE: Dizziness (150 mg daily, 14 days (n = 5)): 0 n (%) | TEAE: Dysmenorrhea (150 mg daily, 14 days (n = 5)): 1 (20.0) n (%) | TEAE: Dyspepsia (150 mg daily, 14 days (n = 5)): 0 n (%) | TEAE: Ear and labyrinth disorders (150 mg daily, 14 days (n = 5)): 0 n (%) | TEAE: Ear pain (150 mg daily, 14 days (n = 5)): 0 n (%) | TEAE: Flushing (150 mg daily, 14 days (n = 5)): 1 (20.0) n (%) | TEAE: Gastrointestinal disorders (150 mg daily, 14 days (n = 5)): 0 n (%) | TEAE: General disorders and administration site conditions (150 mg daily, 14 days (n = 5)): 0 n (%) | TEAE: Headache (150 mg daily, 14 days (n = 5)): 0 n (%) | TEAE: Hot flush (150 mg daily, 14 days (n = 5)): 0 n (%) | TEAE: Infections and infestations (150 mg daily, 14 days (n = 5)): 0 n (%) | TEAE: Injury, poisoning, and procedural complications (150 mg daily, 14 days (n = 5)): 0 n (%) | TEAE: Insomnia (150 mg daily, 14 days (n = 5)): 0 n (%) | TEAE: Investigations (150 mg daily, 14 days (n = 5)): 1 (20.0) n (%) | TEAE: Muscle strain (150 mg daily, 14 days (n = 5)): 0 n (%) | TEAE: Musculoskeletal and connective tissue disorders (150 mg daily, 14 days (n = 5)): 0 n (%) | TEAE: Musculoskeletal pain (150 mg daily, 14 days (n = 5)): 0 n (%) | TEAE: Myalgia (150 mg daily, 14 days (n = 5)): 0 n (%) | TEAE: Nasopharyngitis (150 mg daily, 14 days (n = 5)): 0 n (%) | TEAE: Nausea (150 mg daily, 14 days (n = 5)): 0 n (%) | TEAE: Nervous system disorders (150 mg daily, 14 days (n = 5)): 0 n (%) | TEAE: Oropharyngeal pain (150 mg daily, 14 days (n = 5)): 0 n (%) | TEAE: Psychiatric disorders (150 mg daily, 14 days (n = 5)): 0 n (%) | TEAE: Rash pustular (150 mg daily, 14 days (n = 5)): 0 n (%) | TEAE: Rectal hemorrhage (150 mg daily, 14 days (n = 5)): 0 n (%) | TEAE: Reproductive system and breast disorders (150 mg daily, 14 days (n = 5)): 1 (20.0) n (%) | TEAE: Respiratory, thoracic, and mediastinal disorders (150 mg daily, 14 days (n = 5)): 0 n (%) | TEAE: Sensation of foreign body (150 mg daily, 14 days (n = 5)): 0 n (%) | TEAE: Vascular disorders (150 mg daily, 14 days (n = 5)): 1 (20.0) n (%) | TEAE: Vessel puncture site pain (150 mg daily, 14 days (n = 5)): 0 n (%) | TEAE: Vessel puncture site reaction (150 mg daily, 14 days (n = 5)): 0 n (%) | TEAE: Blood creatine phosphokinase increased (150 mg daily, 14 days (n = 5), occurred 14 days after the end of dosing following greater-than-usual physical activity, same individual as AST increase): 1 (20.0)^a n (%) | TEAE: Aspartate aminotransferase increased (150 mg daily, 14 days (n = 5), occurred 14 days after the end of dosing following greater-than-usual physical activity, same individual as CPK increase): 1 (20.0)^a n (%) | Dose dependency of the incidence of TEAEs (10 to 150 mg): no apparent CC-99677 dose dependency | Serious treatment-emergent adverse events (14 consecutive days of dosing, 5 dose-level cohorts 10 to 150 mg): no serious treatment-emergent adverse events (TEAEs) were observed | AEs not suspected to be related to CC-99677 (blinded investigator assessment) (MAD study): 69% | Discontinuation because of safety reasons (MAD study): No subject discontinued | Severity grade of TEAEs (FDA toxicity grading scale) (MAD study, 10 to 150 mg daily, 14 days): mild (grade 1) | Subjects with TEAEs (all subjects receiving CC-99677 (n = 28), placebo 77.8%): 46.4%
